Results as given in patent US20260365628A1, “SUBSTITUTED 3,4-DIHYDROQUINOLINONE INHIBITORS OF TSHR” (Septerna, Inc., priority 2022, published 2026).

Target: T1, hTSHR (Homo sapiens, UniProt P16473)
T1 construct: expressed in transfected cells
Assay: hTSHR TR-FRET cAMP Assay (inhibition of M22-stimulated cAMP production)
Format: cell-based
Conditions: Expi293F Inducible cells stably expressing hTSHR; cAMP HTRF; stimulated with EC80 of anti-TSHR antibody M22; 15 min compound preincubation, 30 min at 37° C.; read-out: Activity (IC50 bins)
Procedure, shortened: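 Readout was a cAMP HTRF ratio of 655/620 nm after lysis, scaled between the EC80 M22 signal (0% inhibition) and no-agonist vehicle (100%). Frozen induced Expi293F-hTSHR cells saw test compounds (0.5% DMSO) for 15 min at 37 °C before 30 min of M22 stimulation at EC80.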

T1 sequence (P16473 21-764): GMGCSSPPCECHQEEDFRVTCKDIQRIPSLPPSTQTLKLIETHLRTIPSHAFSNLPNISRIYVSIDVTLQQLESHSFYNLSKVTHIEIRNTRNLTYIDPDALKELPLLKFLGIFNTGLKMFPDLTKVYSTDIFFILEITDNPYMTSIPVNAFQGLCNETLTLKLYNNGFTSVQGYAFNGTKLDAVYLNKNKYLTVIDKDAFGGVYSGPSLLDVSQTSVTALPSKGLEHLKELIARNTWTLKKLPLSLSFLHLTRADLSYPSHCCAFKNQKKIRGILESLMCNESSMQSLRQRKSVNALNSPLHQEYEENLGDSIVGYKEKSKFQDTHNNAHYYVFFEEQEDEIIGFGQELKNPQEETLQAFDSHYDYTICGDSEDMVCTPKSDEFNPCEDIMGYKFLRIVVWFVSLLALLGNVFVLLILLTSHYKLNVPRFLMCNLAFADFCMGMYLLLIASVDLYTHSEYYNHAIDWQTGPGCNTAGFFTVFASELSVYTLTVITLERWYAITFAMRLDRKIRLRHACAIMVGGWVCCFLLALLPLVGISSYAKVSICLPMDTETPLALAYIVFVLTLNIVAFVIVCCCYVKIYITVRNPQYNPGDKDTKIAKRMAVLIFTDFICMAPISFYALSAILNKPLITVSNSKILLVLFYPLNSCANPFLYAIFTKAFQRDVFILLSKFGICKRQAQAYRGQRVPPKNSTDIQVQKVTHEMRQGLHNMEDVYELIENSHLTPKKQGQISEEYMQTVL

Row | Compound | IC50
1 | C[C@H]1Oc2cc(NC(=O)NC(C)(C)C)c(F)c(F)c2N(Cc2cccc(C(F)F)c2)C1=O [Example 340, (R)-1-(tert-butyl)-3-(4-(3-(difluoromethyl)benzyl)-5,6-difluoro-2-methyl-3-oxo-3,4-dihydro-2H-benzo[b][1,4]oxazin-7-yl)urea] | 100 to 1000 nM
2 | C[C@H]1Oc2cc(NC(=O)NC(C)(C)C)c(C#N)cc2N(Cc2cccc(C(F)F)c2)C1=O [Example 342, (R)-1-(tert-butyl)-3-(6-cyano-4-(3-(difluoromethyl)benzyl)-2-methyl-3-oxo-3,4-dihydro-2H-benzo[b][1,4]oxazin-7-yl)urea] | < 100 nM
3 | C[C@@H](c1ccccc1)n1c(=O)cnc2cc(NC(=O)NC(C)(C)C)c(C(F)(F)F)cc21 [Example 346, 3-tert-butyl-1-{2-oxo-1-[(1S)-1-phenylethyl]-7-(trifluoromethyl)quinoxalin-6-yl}urea] | 100 to 1000 nM
4 | C[C@H]1Oc2cc(NC(=O)NC(C)(C)C)c(C(F)(F)F)cc2N([C@@H](C)c2ccccc2)C1=O [Example 349, 1-(tert-butyl)-3-((R)-2-methyl-3-oxo-4-((S)-1-phenylethyl)-6-(trifluoromethyl)-3,4-dihydro-2H-benzo[b][1,4]oxazin-7-yl)urea] | < 100 nM
5 | C[C@@H](c1cccc(OC(F)(F)F)c1)n1c(=O)cnc2c(CO)c(NC(=O)NC(C)(C)C)ccc21 [Example 351, (S)-1-(tert-butyl)-3-(5-(hydroxymethyl)-2-oxo-1-(1-(3-(trifluoromethoxy)phenyl)ethyl)-1,2-dihydroquinoxalin-6-yl)urea] | > 1000 nM
6 | C[C@@H](c1cccc(OC(F)(F)F)c1)n1c(=O)cnc2cc(NC(=O)NC(C)(C)C)c(C#N)cc21 [Example 352, 3-tert-butyl-1-{7-cyano-2-oxo-1-[(1S)-1-[3-(trifluoromethoxy)phenyl]ethyl]quinoxalin-6-yl}urea] | 100 to 1000 nM
7 | C[C@@H](c1cccc(OC(F)(F)F)c1)n1c(=O)cnc2c(F)c(NC(=O)NC(C)(C)C)ccc21 [Example 353, 3-tert-butyl-1-{5-fluoro-2-oxo-1-[(1S)-1-[3-(trifluoromethoxy)phenyl]ethyl]quinoxalin-6-yl}urea] | 100 to 1000 nM
8 | C[C@@H](c1cccc(Cl)c1)n1c(=O)cnc2cc(NC(=O)NC(C)(C)C)c(C(F)(F)F)cc21 [Example 358, 3-tert-butyl-1-{1-[(1S)-1-(3-chlorophenyl)ethyl]-2-oxo-7-(trifluoromethyl)quinoxalin-6-yl}urea] | 100 to 1000 nM
9 | C[C@@H](c1cc(Cl)ccc1F)n1c(=O)cnc2cc(NC(=O)NC(C)(C)C)c(C#N)cc21 [Example 364, 3-tert-butyl-1-{1-[(1S)-1-(5-chloro-2-fluorophenyl)ethyl]-7-cyano-2-oxoquinoxalin-6-yl}urea] | 100 to 1000 nM
10 | C[C@H]1Oc2cc(NC(=O)NC(C)(C)C)c(C#N)cc2N([C@@H](C)c2ccccc2)C1=O [Example 366, 1-(tert-butyl)-3-((R)-6-cyano-2-methyl-3-oxo-4-((S)-1-phenylethyl)-3,4-dihydro-2H-benzo[b][1,4]oxazin-7-yl)urea] | < 100 nM
11 | C[C@H]1Oc2nc(NC(=O)NC(C)(C)C)c(C(F)(F)F)cc2N(Cc2ccccc2)C1=O [Example 368, (R)-1-(1-benzyl-3-methyl-2-oxo-7-(trifluoromethyl)-2,3-dihydro-1H-pyrido[2,3-b][1,4]oxazin-6-yl)-3-(tert-butyl)urea] | < 100 nM
12 | C[C@H]1Oc2c(cc(C#N)c(NC(=O)NC(C)(C)C)c2F)N(Cc2ccccc2)C1=O [Example 369, (R)-1-(4-benzyl-6-cyano-8-fluoro-2-methyl-3-oxo-3,4-dihydro-2H-benzo[b][1,4]oxazin-7-yl)-3-(tert-butyl)urea] | < 100 nM
13 | C[C@@H](c1cc(Cl)ccc1F)n1c(=O)cnc2cc(NC(=O)NC(C)(C)C)c(Cl)cc21 [Example 372, (S)-1-(tert-butyl)-3-(7-chloro-1-(1-(5-chloro-2-fluorophenyl)ethyl)-2-oxo-1,2-dihydroquinoxalin-6-yl)urea] | < 100 nM
14 | C[C@H]1Oc2cc(NC(=O)NC(C)(C)C)c(C#N)cc2N(Cc2cc(Cl)ccc2F)C1=O [Example 373, (R)-1-(tert-butyl)-3-(4-(5-chloro-2-fluorobenzyl)-6-cyano-2-methyl-3-oxo-3,4-dihydro-2H-benzo[b][1,4]oxazin-7-yl)urea] | 100 to 1000 nM

Now from value to compound:

Row | IC50 | Compound
15 | 100 to 1000 nM | C[C@H]1Oc2cc(NC(=O)NC(C)(C)C)c(C#N)cc2N(Cc2ccccc2)C1=O [Example 341, (R)-1-(4-benzyl-6-cyano-2-methyl-3-oxo-3,4-dihydro-2H-benzo[b][1,4]oxazin-7-yl)-3-(tert-butyl)urea]
16 | < 100 nM | C[C@@H](c1ccccc1)N1C(=O)CCc2cc(NC(=O)NC(C)(C)C)c(C(F)(F)F)cc21 [Example 343, (S)-1-(tert-butyl)-3-(2-oxo-1-(1-phenylethyl)-7-(trifluoromethyl)-1,2,3,4-tetrahydroquinolin-6-yl) urea]
17 | 100 to 1000 nM | C[C@@H](c1ccccc1)n1c(=O)cnc2cc(NC(=O)NC(C)(C)C)c(Cl)cc21 [Example 344, (S)-1-(tert-butyl)-3-(7-chloro-2-oxo-1-(1-phenylethyl)-1,2-dihydroquinoxalin-6-yl)urea]
18 | 100 to 1000 nM | CC(C)(C)NC(=O)Nc1c(F)cc2c(c1F)CCC(=O)N2Cc1ccccc1 [Example 345, 1-(1-benzyl-5,7-difluoro-2-oxo-1,2,3,4-tetrahydroquinolin-6-yl)-3-(tert-butyl) urea]
19 | 100 to 1000 nM | Cc1cc2c(cc1NC(=O)NC(C)(C)C)ncc(=O)n2[C@@H](C)c1ccccc1 [Example 347, 3-tert-butyl-1-{7-methyl-2-oxo-1-[(1S)-1-phenylethyl]quinoxalin-6-yl}urea]
20 | 100 to 1000 nM | C[C@@H](c1ccccc1)n1c(=O)cnc2cc(NC(=O)NC(C)(C)C)c(C3CC3)cc21 [Example 348, 3-tert-butyl-1-{7-cyclopropyl-2-oxo-1-[(1S)-1-phenylethyl]quinoxalin-6-yl}urea]
21 | 100 to 1000 nM | C[C@H]1Oc2c(cc(C(F)(F)F)c(NC(=O)NC(C)(C)C)c2F)N(Cc2ccccc2)C1=O [Example 354, (R)-1-(4-benzyl-8-fluoro-2-methyl-3-oxo-6-(trifluoromethyl)-3,4-dihydro-2H-benzo[b][1,4]oxazin-7-yl)-3-(tert-butyl)urea]
22 | 100 to 1000 nM | C[C@H]1Oc2nc(NC(=O)NC(C)(C)C)c(Cl)cc2N(Cc2ccccc2)C1=O [Example 355, 1-[(3R)-1-benzyl-7-chloro-3-methyl-2-oxo-3H-pyrido[2,3-b][1,4]oxazin-6-yl]-3-tert-butylurea]
23 | 100 to 1000 nM | C[C@H]1Oc2c(cc(C(F)(F)F)c(NC(=O)NC(C)(C)C)c2F)N(Cc2cccc(C(F)F)c2)C1=O [Example 356, (R)-1-(tert-butyl)-3-(4-(3-(difluoromethyl)benzyl)-8-fluoro-2-methyl-3-oxo-6-(trifluoromethyl)-3,4-dihydro-2H-benzo[b][1,4]oxazin-7-yl)urea]
24 | 100 to 1000 nM | C[C@@H](c1cccc(Cl)c1)n1c(=O)cnc2cc(NC(=O)NC(C)(C)C)c(F)cc21 [Example 357, (S)-1-(tert-butyl)-3-(1-(1-(3-chlorophenyl)ethyl)-7-fluoro-2-oxo-1,2-dihydroquinoxalin-6-yl) Urea]
25 | < 100 nM | C[C@@H](c1cccc(OC(F)(F)F)c1)n1c(=O)cnc2cc(NC(=O)OC3CCCC3)ccc21 [Example 359, cyclopentyl (S)-(2-oxo-1-(1-(3-(trifluoromethoxy)phenyl)ethyl)-1,2-dihydroquinoxalin-6-yl)carbamate]
26 | > 1000 nM | C[C@@H](c1ccccc1)n1c(=O)cnc2cc(NC(=O)NC(C)(C)C)c(CO)cc21 [Example 360, (S)-1-(tert-butyl)-3-(7-(hydroxymethyl)-2-oxo-1-(1-phenylethyl)-1,2-dihydroquinoxalin-6-yl)urea]
27 | 100 to 1000 nM | C[C@@H](c1cccc(Cl)c1)n1c(=O)cnc2cc(NC(=O)NC(C)(C)C)c(C#N)cc21 [Example 361, 3-tert-butyl-1-{1-[(1S)-1-(3-chlorophenyl)ethyl]-7-cyano-2-oxoquinoxalin-6-yl}urea]
28 | 100 to 1000 nM | C[C@H]1Oc2nc(NC(=O)NC(C)(C)C)c(C#N)cc2N(Cc2ccccc2)C1=O [Example 362, 1-[(3R)-1-benzyl-7-cyano-3-methyl-2-oxo-3H-pyrido[2,3-b][1,4]oxazin-6-yl]-3-tert-butylurea]
29 | 100 to 1000 nM | C[C@@H](c1cc(Cl)ccc1Cl)n1c(=O)cnc2cc(NC(=O)NC(C)(C)C)c(C#N)cc21 [Example 363, (S)-1-(tert-butyl)-3-(7-cyano-1-(1-(2,5-dichlorophenyl)ethyl)-2-oxo-1,2-dihydroquinoxalin-6-yl) urea]
30 | < 100 nM | C[C@@H](c1cc(Cl)ccc1Cl)n1c(=O)cnc2cc(NC(=O)NC(C)(C)C)c(Cl)cc21 [Example 365, (S)-1-(tert-butyl)-3-(7-chloro-1-(1-(2,5-dichlorophenyl)ethyl)-2-oxo-1,2-dihydroquinoxalin-6-yl)urea]
31 | 100 to 1000 nM | C[C@H]1Oc2cc(NC(=O)NC(C)(C)C)c(C#N)cc2N(Cc2cc(Cl)ccc2Cl)C1=O [Example 367, 3-tert-butyl-1-[(2R)-6-cyano-4-[(2,5-dichlorophenyl)methyl]-2-methyl-3-oxo-2H-1,4-benzoxazin-7-yl]urea]
32 | < 100 nM | C[C@H]1Oc2c(cc(C#N)c(NC(=O)NC(C)(C)C)c2F)N(Cc2cccc(C(F)F)c2)C1=O [Example 370, (R)-1-(tert-butyl)-3-(6-cyano-4-(3-(difluoromethyl)benzyl)-8-fluoro-2-methyl-3-oxo-3,4-dihydro-2H-benzo[b][1,4]oxazin-7-yl)urea]
33 | < 100 nM | C[C@H]1Oc2nc(NC(=O)NC(C)(C)C)c(C#N)cc2N(Cc2cccc(C(F)F)c2)C1=O [Example 371, (R)-1-(tert-butyl)-3-(7-cyano-1-(3-(difluoromethyl)benzyl)-3-methyl-2-oxo-2,3-dihydro-1H-pyrido[2,3-b][1,4]oxazin-6-yl)urea]
